Data reported in US20260028326A1, “COMPOUND BASED ON ISOINDOLINE-SUBSTITUTED GLUTARIMIDE BACKBONE AND USE THEREOF” (GLUETACS THERAPEUTICS (SHANGHAI) CO., LTD., priority 2022, published 2026).

target: human Cereblon WT GST-tagged protein (Homo sapiens (Human), UniProt Q96SW2); experiment: CRBN-binding affinity, HTRF (CEREBLON BINDING kit)
Procedure, shortened: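 GST-tagged human WT Cereblon incubated with compound, then Thalidomide-Re tracer and anti-GST Eu antibody added. Displacement read by HTRF, reported as CRBN binding inhibition rate against blank control wells without protein.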

human Cereblon WT GST-tagged protein, sequence (Q96SW2 whole entry): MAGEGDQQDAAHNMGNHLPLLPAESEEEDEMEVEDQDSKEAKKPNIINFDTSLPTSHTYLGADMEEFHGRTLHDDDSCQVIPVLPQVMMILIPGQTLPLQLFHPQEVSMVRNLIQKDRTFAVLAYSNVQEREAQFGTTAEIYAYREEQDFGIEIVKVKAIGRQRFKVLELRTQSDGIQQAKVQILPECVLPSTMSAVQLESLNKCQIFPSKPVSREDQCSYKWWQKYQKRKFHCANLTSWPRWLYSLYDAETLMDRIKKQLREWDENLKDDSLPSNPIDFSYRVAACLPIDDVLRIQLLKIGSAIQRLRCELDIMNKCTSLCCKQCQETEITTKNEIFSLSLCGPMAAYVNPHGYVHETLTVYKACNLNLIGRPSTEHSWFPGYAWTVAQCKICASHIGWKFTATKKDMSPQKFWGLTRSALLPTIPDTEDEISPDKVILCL

| Compound | IC50 |
| --- | --- |
| CC1(C)CCC(CN2C3CCC2CN(Cc2cc(F)c4c(c2)CN(C2CCC(=O)NC2=O)C4=O)C3)=C(c2ccc(Cl)cc2)C1 (centres unmarked) [GT-05536, 3-(5-((8-((4′-chloro-5,5-dimethyl-3,4,5,6-tetrahydro-[1,1′-biphenyl]-2-yl)methyl)-3,8-diazabicyclo[3.2.1]octan-3-yl)methyl)-7-fluoro-1-oxoisoindolin-2-yl)piperidine-2,6-dione] | 1.05 µM |
| CC1(C)CCC(C(=O)N2CC3(C2)CN(C(=O)c2ccc4c(c2)CN(C2CCC(=O)NC2=O)C4=O)C3)=C(c2ccc(Cl)cc2)C1 (centres unmarked) [GT-05682, 3-(5-(6-(4′-chloro-5,5-dimethyl-3,4,5,6-tetrahydro-[1,1′-biphenyl]-2-carbonyl)-2,6-diazaspiro[3.3]heptane-2-carbonyl)-1-oxoisoindolin-2-yl)piperidine-2,6-dione] | 0.57 µM |
| CC1(C)CCC(CN2C3CCC2CN(C(=O)c2ccc4c(c2)CN(C2CCC(=O)NC2=O)C4=O)C3)=C(c2ccc(Cl)cc2)C1 (centres unmarked) [GT-05446, 3-(5-(8-((4′-chloro-5,5-dimethyl-3,4,5,6-tetrahydro-[1,1′-biphenyl]-2-yl)methyl)-3,8-diazabicyclo[3.2.1]octane-3-carbonyl)-1-oxoisoindolin-2-yl)piperidine-2,6-dione] | 1.87 µM |
| CC1(C)CCC(CN2CC(=Cc3ccc4c(c3)CN(C3CCC(=O)NC3=O)C4=O)C2)=C(c2ccc(F)cc2)C1 (centres unmarked) [GT-05483, 3-(5-((1-((4′-fluoro-5,5-dimethyl-3,4,5,6-tetrahydro-[1,1′-biphenyl]-2-yl)methyl)azetidin-3-ylidene)methyl)-1-oxoisoindolin-2-yl)piperidine-2,6-dione] | 0.51 µM |
| CC1(C)CCC(CN2C[C@H]3C[C@@H]2CN3C(=O)c2ccc3c(c2)CN(C2CCC(=O)NC2=O)C3=O)=C(c2ccc(Cl)cc2)C1 (stereo partly drawn) [GT-05441, 3-(5-((1R,4R)-5-((4′-chloro-5,5-dimethyl-3,4,5,6-tetrahydro-[1,1′-biphenyl]-2-yl)methyl)-2,5-diazabicyclo[2.2.1]heptane-2-carbonyl)-1-oxoisoindolin-2-yl)piperidine-2,6-dione] | 1.57 µM |
| O=C1CCC(N2Cc3cc(C(O)C4(O)CN(Cc5ccccc5-c5ccc(Cl)cc5)C4)ccc3C2=O)C(=O)N1 (centres unmarked) [GT-03880, 3-(5-((1-((4′-chloro-[1,1′-biphenyl]-2-yl)methyl)-3-hydroxyazetidin-3-yl)(hydroxy)methyl)-1-oxoisoindolin-2-yl)piperidine-2,6-dione] | 0.23 µM |
| CC1(C)CCC(C(=O)N2CCN(Cc3ccc4c(c3)CN(C3CCC(=O)NC3=O)C4=O)CC2)=C(c2ccc(Cl)cc2)C1 (centres unmarked) [GT-04224, 3-(5-((4-(4′-chloro-5,5-dimethyl-3,4,5,6-tetrahydro-[1,1′-biphenyl]-2-carbonyl)piperazin-1-yl)methyl)-1-oxoisoindolin-2-yl)piperidine-2,6-dione] | 0.43 µM |
| O=C1CCC(N2Cc3cc(CN4CC5CC4CN5Cc4ccccc4-c4ccc(Cl)cc4)ccc3C2=O)C(=O)N1 (centres unmarked) [GT-05707, 3-(5-((5-((4′-chloro-[1,1′-biphenyl]-2-yl)methyl)-2,5-diazabicyclo[2.2.1]heptan-2-yl)methyl)-1-oxoisoindolin-2-yl)piperidine-2,6-dione] | 0.71 µM |
| CC1(C)CCC(CN2CCC(Cc3ccc4c(c3)CN(C3CCC(=O)NC3=O)C4=O)CC2)=C(c2ccc(F)cc2)C1 (centres unmarked) [GT-03455, 3-(5-((1-((4′-fluoro-5,5-dimethyl-3,4,5,6-tetrahydro-[1,1′-biphenyl]-2-yl)methyl)piperidin-4-yl)methyl)-1-oxoisoindolin-2-yl)piperidine-2,6-dione] | 0.34 µM |
| O=C1CCC(N2Cc3cc(C(=O)N4CC5CC(C4)N5Cc4ccccc4-c4ccc(Cl)cc4)ccc3C2=O)C(=O)N1 (centres unmarked) [GT-05705, 3-(5-(6-((4′-chloro-[1,1′-biphenyl]-2-yl)methyl)-3,6-diazabicyclo[3.1.1]heptane-3-carbonyl)-1-oxoisoindolin-2-yl)piperidine-2,6-dione] | 0.88 µM |
| O=C1CCC(N2Cc3c(CN4CCN(CC5=C(c6ccc(F)cc6)CCCC5)CC4)cccc3C2=O)C(=O)N1 (centres unmarked) [GT-05861, 3-(4-((4-((4′-fluoro-3,4,5,6-tetrahydro-[1,1′-biphenyl]-2-yl)methyl)piperazin-1-yl)methyl)-1-oxoisoindolin-2-yl)piperidine-2,6-dione] | 1.29 µM |
| O=C1CCC(N2Cc3c(CN4CCN(C(=O)c5ccccc5-c5ccc(Cl)cc5)CC4)cccc3C2=O)C(=O)N1 (centres unmarked) [GT-05701, 3-(4-((4-(4′-chloro-[1,1′-biphenyl]-2-carbonyl)piperazin-1-yl)methyl)-1-oxoisoindolin-2-yl)piperidine-2,6-dione] | 1.8 µM |
| CC1(C)CCC(C(=O)N2CC3CCC(C2)N3C(=O)c2ccc3c(c2)CN(C2CCC(=O)NC2=O)C3=O)=C(c2ccc(Cl)cc2)C1 (centres unmarked) [GT-05539, 3-(5-(3-(4′-chloro-5,5-dimethyl-3,4,5,6-tetrahydro-[1,1′-biphenyl]-2-carbonyl)-3,8-diazabicyclo[3.2.1]octane-8-carbonyl)-1-oxoisoindolin-2-yl)piperidine-2,6-dione] | 1.28 µM |
| CC1(C)CCC(CN2CC3CCC2CN3Cc2cc3c(cc2F)C(=O)N(C2CCC(=O)NC2=O)C3)=C(c2ccc(Cl)cc2)C1 (centres unmarked) [GT-05460, 3-(5-((5-((4′-chloro-5,5-dimethyl-3,4,5,6-tetrahydro-[1,1′-biphenyl]-2-yl)methyl)-2,5-diazabicyclo[2.2.2]octan-2-yl)methyl)-6-fluoro-1-oxoisoindolin-2-yl)piperidine-2,6-dione] | 1.63 µM |
| O=C1CCC(N2Cc3cc(CC4CCN(Cc5ccccc5-c5ccc(Cl)cc5)CC4)ccc3C2=O)C(=O)N1 (centres unmarked) [GT-03361, 3-(5-((1-((4′-chloro-[1,1′-biphenyl]-2-yl)methyl)piperidin-4-yl)methyl)-1-oxoisoindolin-2-yl)piperidine-2,6-dione] | 1.59 µM |
| CC1(C)CCC(C(=O)N2C3CC2CN(C(=O)c2ccc4c(c2)CN(C2CCC(=O)NC2=O)C4=O)C3)=C(c2ccc(Cl)cc2)C1 (centres unmarked) [GT-05661, 3-(5-(6-(4′-chloro-5,5-dimethyl-3,4,5,6-tetrahydro-[1,1′-biphenyl]-2-carbonyl)-3,6-diazabicyclo[3.1.1]heptane-3-carbonyl)-1-oxoisoindolin-2-yl)piperidine-2,6-dione] | 0.96 µM |
| CC1(C)CCC(CN2CC3CN(Cc4ccc5c(c4)CN(C4CCC(=O)NC4=O)C5=O)CC3C2)=C(c2ccc(Cl)cc2)C1 (centres unmarked) [GT-05653, 3-(5-((5-((4′-chloro-5,5-dimethyl-3,4,5,6-tetrahydro-[1,1′-biphenyl]-2-yl)methyl)hexahydropyrrolo[3,4-c]pyrrol-2(1H)-yl)methyl)-1-oxoisoindolin-2-yl)piperidine-2,6-dione] | 1.06 µM |
| CC1(C)CCC(CN2CCC(Nc3ccc4c(c3)CN(C3CCC(=O)NC3=O)C4=O)CC2)=C(c2ccc(F)cc2)C1 (centres unmarked) [GT-05785, 3-(5-((1-((4′-fluoro-5,5-dimethyl-3,4,5,6-tetrahydro-[1,1′-biphenyl]-2-yl)methyl)piperidin-4-yl)amino)-1-oxoisoindolin-2-yl)piperidine-2,6-dione] | 1.25 µM |
| O=C1CCC(N2Cc3cccc(CN4C5CC4CN(C(=O)C4=C(c6ccc(F)cc6)CCCC4)C5)c3C2=O)C(=O)N1 (centres unmarked) [GT-05480, 3-(7-((3-(4′-fluoro-3,4,5,6-tetrahydro-[1,1′-biphenyl]-2-carbonyl)-3,6-diazabicyclo[3.1.1]heptan-6-yl)methyl)-1-oxoisoindolin-2-yl)piperidine-2,6-dione] | 1.74 µM |
| CC1(C)CCC(CN2CCC3(CC2)CN(Cc2ccc4c(c2)CN(C2CCC(=O)NC2=O)C4=O)C3)=C(c2ccc(F)cc2)C1 (centres unmarked) [GT-05506, 3-(5-((7-((4′-fluoro-5,5-dimethyl-3,4,5,6-tetrahydro-[1,1′-biphenyl]-2-yl)methyl)-2,7-diazaspiro[3.5]nonan-2-yl)methyl)-1-oxoisoindolin-2-yl)piperidine-2,6-dione] | 0.54 µM |
| CC1(C)CCC(C(=O)N2CC(Cc3ccc4c(c3)CN(C3CCC(=O)NC3=O)C4=O)C2)=C(c2ccc(Cl)cc2)C1 (centres unmarked) [GT-05419, 3-(5-((1-(4′-chloro-5,5-dimethyl-3,4,5,6-tetrahydro-[1,1′-biphenyl]-2-carbonyl)azetidin-3-yl)methyl)-1-oxoisoindolin-2-yl)piperidine-2,6-dione] | 0.72 µM |
| CC1(C)CCC(CN2CC3CC(C2)N3C(=O)c2ccc3c(c2)CN(C2CCC(=O)NC2=O)C3=O)=C(c2ccc(Cl)cc2)C1 (centres unmarked) [GT-05440, 3-(5-(3-((4′-chloro-5,5-dimethyl-3,4,5,6-tetrahydro-[1,1′-biphenyl]-2-yl)methyl)-3,6-diazabicyclo[3.1.1]heptane-6-carbonyl)-1-oxoisoindolin-2-yl)piperidine-2,6-dione] | 0.94 µM |
| CC1(C)CCC(CN2C3CCC2CN(Cc2ccc4c(c2F)CN(C2CCC(=O)NC2=O)C4=O)C3)=C(c2ccc(Cl)cc2)C1 (centres unmarked) [GT-05534, 3-(5-((8-((4′-chloro-5,5-dimethyl-3,4,5,6-tetrahydro-[1,1′-biphenyl]-2-yl)methyl)-3,8-diazabicyclo[3.2.1]octan-3-yl)methyl)-4-fluoro-1-oxoisoindolin-2-yl)piperidine-2,6-dione] | 1.17 µM |
| CC1(C)CCC(CN2C3CC2CN(c2ccc4c(c2)C(=O)N(C2CCC(=O)NC2=O)C4=O)C3)=C(c2ccc(F)cc2)C1 (centres unmarked) [GT-05387, 2-(2,6-dioxopiperidin-3-yl)-5-(6-((4′-fluoro-5,5-dimethyl-3,4,5,6-tetrahydro-[1,1′-biphenyl]-2-yl)methyl)-3,6-diazabicyclo[3.1.1]heptan-3-yl)isoindoline-1,3-dione] | 0.81 µM |
| O=C1CCC(N2C(=O)c3ccc(N4CC5CC(C4)N5Cc4ccccc4-c4ccc(Cl)cc4)cc3C2=O)C(=O)N1 (centres unmarked) [GT-05373, 5-(6-((4′-chloro-[1,1′-biphenyl]-2-yl)methyl)-3,6-diazabicyclo[3.1.1]heptan-3-yl)-2-(2,6-dioxopiperidin-3-yl)isoindoline-1,3-dione] | 1.49 µM |
| CC1(C)CCC(CN2C[C@@H]3C[C@H]2CN3C(=O)c2ccc3c(c2)CN(C2CCC(=O)NC2=O)C3=O)=C(c2ccc(Cl)cc2)C1 (stereo partly drawn) [GT-05442, 3-(5-((1S,4S)-5-((4′-chloro-5,5-dimethyl-3,4,5,6-tetrahydro-[1,1′-biphenyl]-2-yl)methyl)-2,5-diazabicyclo[2.2.1]heptane-2-carbonyl)-1-oxoisoindolin-2-yl)piperidine-2,6-dione] | 0.67 µM |
